The data set is described as follows: solvent given as SMILES.

SMILES strings stand for the structures.

For the setting “in CO”, `CCCCCCc1cc(B(c2c(C)cc(C)cc2C)c2c(C)cc(C)cc2C)c(-c2sc(CCCCCC)cc2P(=O)(c2ccccc2)c2ccccc2)s1` showed an absorption maximum of 418 nm.
`O=C(O)COc1cccc(OCC(=O)O)c1-c1c2ccc(=[N+]3CCCCC3)cc-2oc2cc(N3CCCCC3)ccc12`: the absorption maximum is 557 nm (in CCO) and 567 nm (in O).
Molecule `C(#Cc1cc(C#Cc2ccccc2)c(C#Cc2ccccc2)c(C#Cc2ccccc2)c1C#Cc1ccccc1)c1ccccc1` yielded an absorption maximum (in ClCCl) of 364 nm.
In the case of `CCC1=C(C)C2=C(c3c4ccccc4c(C)c4ccccc34)c3c(C)c(CC)c(C)n3[B-](F)(F)[N+]2=C1C`, the absorption maximum (in CC#N) is recorded as 527 nm; the absorption maximum (in CCCCCC) is given as 529 nm; the absorption maximum (in CCO) is given as 528 nm; the absorption maximum (in CN(C)C=O) is 530 nm; the absorption maximum (in Cc1ccccc1) was 532 nm; the absorption maximum (in ClCCl) came to 531 nm.
As for `[NH3+]C(Cc1ccc(O)c(O)c1)C(=O)[O-]` (stereo not given), where the note is “in O”, the absorption maximum came out at 278 nm.
Turning to `Nc1cc[nH]c(=S)n1`, the absorption maximum was determined as 283 nm (in CC#N); 280 nm (in CCO); 286 nm (in CCOC(C)=O); 278 nm (in CO); 285 nm (in CS(C)=O); 269 nm (in O).
With `C/C=C/C=C/C1=NC(=C\c2ccc(O)cc2)/C(=O)N1C`, the absorption maximum came out at 425 nm (in ClC(Cl)Cl) and 421 nm (in O).
As for `COC(=O)C(NC(=O)OC(C)(C)C)c1ccc2oc(-c3ccc(F)cc3)nc2c1` (stereo not given), the absorption maximum is, setting by setting: (in CC1CCCCC1) 317 nm; (in CC#N) 314 nm; (in CO) 302 nm.
For the setting “in ClC(Cl)Cl”, `CCCCC1(CCCC)c2ccccc2-c2ccc(-c3c4c(nc5ccccc35)-c3cc5c(cc3CC4)-c3nc4ccccc4c(-c4ccc6c(c4)C(CCCC)(CCCC)c4ccccc4-6)c3CC5)cc21` yielded an absorption maximum of 377 nm.
As for `Cc1ccc(C#Cc2c3cc4ccccc4cc3c(C#C[Si](C(C)C)(C(C)C)C(C)C)c3cc4ccccc4cc23)cc1`, the absorption maximum (in ClCCl) was 654 nm.
In the case of `CCCCCCCCCCCCN1C(=O)c2ccc3c4ccc5c6c(ccc(c7ccc(c2c37)C1=O)c64)C(=O)NC5=O`, the absorption maximum (in CN(C)C=O) was determined as 522 nm.
In turn, `c1cc2c3c(c1)-c1cccc4ccn(c14)B3n1ccc3cccc-2c31` returned an absorption maximum (in C1CCOC1) of 385 nm.
With `C(/C=C/Nc1cccc2ccccc12)=[NH+]c1cccc2ccccc12`, the absorption maximum (in CS(C)=O) is 391 nm.
Turning to `CN1CCc2cc(C3=Cc4cccc[n+]4[B-](F)(F)O3)ccc21`, for the setting “in ClC(Cl)Cl”, the absorption maximum is 430 nm.
Take `CCCCCCCC(=O)Oc1ccc2c3cccc4c(OC(=O)CCCCCCC)ccc(c5cccc1c52)c43`: the absorption maximum by setting is: (in C1CCOC1) 445 nm; (in Cc1ccccc1) 448 nm; (in ClC(Cl)(Cl)Cl) 448 nm; (in ClC(Cl)Cl) 446 nm; (in ClCCl) 445 nm; (in c1ccncc1) 449 nm.
Regarding `CCCC(=O)c1c2c(c(C(=O)CCC)c3c1OC(CC(=O)OC)(C(=O)O)O3)OCO2`, the absorption maximum is, setting by setting: (in CC#N) 424 nm; (in CCO) 445 nm; (in CO) 442 nm; (in ClCCl) 423 nm; (in O) 448 nm.
Turning to `N#Cc1nc(N(Cc2ccc(I)cc2)Cc2ccc(I)cc2)c(C#N)nc1N(Cc1ccc(I)cc1)Cc1ccc(I)cc1`, the absorption maximum (in ClC(Cl)Cl) is reported as 484 nm.
For the setting “in Cc1ccccc1”, `Cc1cc(-c2nc(-c3ccccc3)nc(-c3ccccc3)n2)ccc1N1c2ccccc2[Si](c2ccccc2)(c2ccccc2)c2ccccc21` had an absorption maximum of 379.03 nm.
In the case of `COc1cccc(/C=C/c2ccccc2)c1`, the absorption maximum (in CC#N) amounted to 295 nm.
With `CN(C)c1ccc(/C=C/c2nc3c(ccc4ccccc43)s2)cc1`, the absorption maximum was found to be 402 nm (in C1CCCCC1) and 409 nm (in CC#N).
Molecule `Cc1cc(C)c(C2=C3C=CC(c4ccc5c(ccc6ccccc65)c4)=[N+]3[B-](F)(F)n3c2ccc3-c2ccc3c(ccc4ccccc43)c2)c(C)c1` had an absorption maximum (in ClC(Cl)Cl) of 579 nm.
Molecule `Cc1c(C)n2c(COC(=O)c3ccccc3O)c(C)c(=O)n2c1=O` returned an absorption maximum (in CCO) of 379 nm.
Consider `c1cc2ccc3[o+]c4ccc5cccc6c7cccc8c(c1)c2c3c(c87)c4c56`, for which the absorption maximum (in ClCCl) is given as 573 nm.
`CCC1=C(C)C2=C(C)c3cc(I)c(I)n3[B-](F)(F)[N+]2=C1C`: the absorption maximum by setting is: (in C1CCCCC1) 532 nm; (in CC(C)=O) 515.5 nm; (in CCO) 520 nm; (in CCOC(C)=O) 518.5 nm; (in CO) 518 nm; (in OCC(F)(F)F) 511.5 nm.
In the case of `c1ccc2c(c1)Oc1ccccc1N2c1ccc2c(c1)c1ccccc1n1c3ccccc3nc21`, the absorption maximum (in Cc1ccccc1) is 376 nm.
Take `O=C1O[B-]2(OC1=O)OC(c1ccccc1)=CC(c1ccccc1)=[O+]2`: the absorption maximum is, setting by setting: (in CC#N) 384 nm; (in ClC(Cl)(Cl)Cl) 384 nm.
Take `CC1(C)Cc2c(c3ccccc3c3nc4ccccc4nc23)O1`: the absorption maximum is reported as 456 nm (in C1CCCCC1); 459.98 nm (in C1CCOC1); 457.04 nm (in CN(C)C=O); 458.09 nm (in CO); 459.98 nm (in ClC(Cl)Cl); 458.09 nm (in c1ccccc1).
On to `F[B-]1(F)n2cccc2C(c2ccc(-c3c4ccccc4c(-c4ccccc4)c4ccccc34)cc2)=C2C=CC=[N+]21`, for which the absorption maximum (in CC#N) came out at 498 nm; the absorption maximum (in CCCCCC) was 501 nm; the absorption maximum (in CCO) was 500 nm; the absorption maximum (in CN(C)C=O) was found to be 502 nm; the absorption maximum (in Cc1ccccc1) amounted to 505 nm; the absorption maximum (in ClCCl) came to 502 nm.
For `COC(=O)c1cc(=O)n(C)c2cc(-c3ccc4c(c3)OCO4)sc12`, the absorption maximum came to 400 nm (in CC#N) and 404 nm (in ClCCl).
The molecule `O=c1cc2cc(O)c3cccc4ccc(o1)c2c43` gave an absorption maximum (in CC1CCCO1) of 469 nm.
Where the note is “in ClC(Cl)Cl”, `F[B-]1(F)OC(c2cccc(Br)c2)=Cc2c3ccccc3c3ccccc3[n+]21` displayed an absorption maximum of 432 nm.
Take `CCn1c2ccccc2c2cc(C#Cc3cc(C#Cc4ccc5c(c4)c4ccccc4n5CC)nc(OC)n3)ccc21`: the absorption maximum (in C1CCOC1) turned out to be 388 nm; the absorption maximum (in CCOC(C)=O) worked out at 384 nm; the absorption maximum (in CN(C)C=O) was determined as 392 nm; the absorption maximum (in Cc1ccccc1) is 389 nm; the absorption maximum (in ClCCl) is 390 nm.
Regarding `FC(F)(F)c1ccc(/C=C/c2ccc(-c3nnc(-c4ccc(-c5cc6ccccc6s5)cc4)o3)cc2)cc1`, the absorption maximum came to 333 nm (in CC#N); 342 nm (in CC(C)=O); 337 nm (in CCCCCCCC); 340 nm (in CCCCCCCCCCO); 342 nm (in CCCCCCCCO); 341 nm (in CCCCCO). The molecule also gave an absorption maximum (in CCCO) of 340 nm, an absorption maximum (in CN(C)C=O) of 345 nm, an absorption maximum (in CO) of 337 nm and an absorption maximum (in CS(C)=O) of 342 nm.
Consider `CCCCCCN1C(=O)c2cccc3cc(/N=C\c4ccc5c(c4)c4ccccc4n5CC)cc(c23)C1=O`, for which the absorption maximum (in ClC(Cl)Cl) is given as 340 nm.
On to `CC1(C)c2ccccc2N(c2ccccc2)c2ccc(-c3ccc(C(=O)c4ccc(-c5ccc6c(c5)C(C)(C)c5ccccc5N6c5ccccc5)cc4)cc3)cc21`, for which the absorption maximum (in Cc1ccccc1) was 377.59 nm.
The molecule `N[C@@H](Cc1ccc(O)cc1)C(=O)O` gave an absorption maximum (in O) of 285 nm.
Take `COc1ccc(-c2cc3c(s2)c(-c2ccccc2)cc(=O)n3C)cc1`: the absorption maximum was determined as 384 nm (in CC#N) and 386 nm (in ClCCl).
Turning to `Cc1ccc2c(c1)C1(c3ccccc3Oc3ccccc31)c1cc(C)ccc1N2c1ccc(-c2nc(-c3ccccc3)cc(-c3ccccc3)n2)cc1`, the absorption maximum (in Cc1ccccc1) is 378 nm.
Turning to `Cc1cc(C)c(C2=C3C=CC=[N+]3[B-]3(c4cccc5ccccc45)Oc4cc(O)cc5c6ccc(C)cc6c6cc2n3c6c45)c(C)c1` (stereo not given), the absorption maximum (in ClC(Cl)Cl) was 646 nm.
Consider `CC1(C)C(/C=C/C2=C(Cl)C(=C/C=C3/N(CCCCCC(=O)O)c4ccccc4C3(C)C)/CCC2)=[N+](CCCCCC(=O)O)c2ccccc21`, for which, where the note is “in CO”, the absorption maximum worked out at 782 nm.

The values are drawn from the Deep4Chem optical property database.
